≈ marks a conversion by molar mass, not a printed value. Marks after values point to notes of the source that are not given here.
Assays:
[1] = test system: Mtb in J774 cells; experiment: Mtb growth in J774 macrophage-like cells (mKO fluorescence); assay type: cell-based, Mycobacterium tuberculosis; details: for Inhibition of Mtb growth in J774 cells phenotype: compared to C6; for % Reduction of Intracellular Infection (J774.1 cells) at 10 μM cmpd: 10 μM compound
Protocol: For the tertiary screen of selected hit compounds in J774 murine macrophage-like cells, 30,000 J774 cells/well were seeded in bar-coded 384-well black, clear bottom plates in a 30 μl volume in J774 infection media (DMEM+10% FBS+1 mM sodium pyruvate+2 mM L-glutamine) using a ThermoFisher Multidrop Combi reagent dispenser, one day prior to assay start. On the day of the assay, log-phase Mtb constitutively expressing mKO were pelleted and resuspended in 1 ml basal uptake buffer (0.5% bovine serum albumin+25 mM dextrose+0.5 mM MgCl2+1 mM CaCl2+0.1% gelatin in phosphate buffered saline (PBS), passed 6× though a tuberculin syringe with a 25 G×5/8″ needle, then resuspended in J774 infection media to a final OD600=0.2. 10 μl of this bacterial suspension was added to each well of the 384-well plates containing the J774 cells, followed by addition of 10 μl of the appropriate compounds (pre-aliquoted in v-bottom plates in a 1:1 mix of PBS:J774 infection media). Addition of Mtb and compounds were conducted using a Janus Ministation. For each test plate, two columns of controls (16 wells each) were included, with one column consisting of treatment with DMSO as a carrier control (negative control), and the other column consisting of treatment with 5 μM rifampicin (positive control). This tertiary assay was done as a dose-response assay in duplicate runs, with compounds tested beginning at a final concentration of 20 μM and two-fold dilutions down to 0.039 μM. Plates were kept in humidified ziplock bags in a 37° C., 5% CO2 incubator. 6 days post-infection, mKO fluorescence signal was read using a PerkinElmer EnVision multimode plate reader (bottom read filter, excitation 530/8 nm, Bodipy TMR D555 single mirror, emission 579/25 nm). mKO fluorescence in DMSO-treated control samples were defined as 100% growth, and fluorescence observed in treatment conditions calculated as a percentage from that set value.
For J774 infection in 96-well plates, 180,000 J774 cells were seeded per well in 180 μl of J774 infection media one day prior to infection. On the day of the assay, log-phase Mtb constitutively expressing mKO were pelleted and resuspended in 1 ml basal uptake buffer, passed 6× though a tuberculin syringe with a 25 G×5/8″ needle, then resuspended in J774 infection media to a final OD600=0.2. Media was removed from 96-well plate containing the J774 cells, with 140 μl of fresh J774 infection media added back to each well. 40 μl of the Mtb suspension at OD600=0.2 was added to each well, followed by addition of appropriate concentration of compound or DMSO in a 20 μl final volume in J774 infection media (compound final concentration 10 μM, rifampicin final concentration 5 μM, DMSO final concentration 0.1%/well). Bacterial mKO fluorescence was read immediately after infection using a Biotek Synergy Neo2 microplate reader (bottom read monochromator, excitation 543/10 nm, emission 565/10 nm), and again 6 days post-infection. Plates were kept in humidified ziplock bags in a 37° C., 5% CO2 incubator. mKO fluorescence in DMSO-treated control samples were defined as 100% growth, and fluorescence observed in treatment conditions calculated as a percentage from that set value.

[2] = test system: rv2390c′::GFP reporter Mtb strain; assay type: cell-based, Mycobacterium tuberculosis; details: for rv2390c′::GFP Cl− response phenotype: compared to C6
[3] = test system: Mtb; experiment: Mtb growth assay in cholesterol media (OD600); assay type: cell-based, Mycobacterium tuberculosis
[4] = Mouse liver microsomal stability; assay type: in vitro ADME; details: mouse liver microsomes; read-out: MLM t1/2
Protocol: (§1) Assays examining mouse and human liver microsomal stability, kinetic aqueous solubility, mouse and human plasma protein binding and stability, and human cytochrome P450 inhibition characteristics of the compounds were run by BioDuro, Incorporated, using standard protocols as previously described (Wang et al, 2020). hERG inhibition assays were also performed by BioDuro, Incorporated.

[5] = Kinetic aqueous solubility in pH 7.4 PBS; assay type: physicochemical; details: PBS, pH 7.4, aqueous buffer, kinetic from dmso stock; Table 2; read-out: Kinetic Aqueous Solubility S
Protocol: as §1

[6] = Mouse pharmacokinetics, single oral dose; assay type: in vivo, CD-1 mice; details: female, single 25 mg/kg po dose; for Kp at 5 h: CD-1, mouse, lung vs plasma, read-out: Mouse PK Clung/Cplasma at t = 5 h; for AUC(0-t): mouse, plasma, CD-1 mice, read-out: Mouse PK AUC0-5h
Protocol: Blood samples were collected in K2EDTA coated tubes pre-dose, 0.5, 1, 3 and 5 hrs post-dose, placed on ice, and centrifuged to recover plasma. The recovered plasma was kept at −80° C. as needed prior to analysis, which was performed as previously described (Wang et al, 2020). In brief, a Sciex Applied Biosystems Qtrap 4000 triple-quadrupole mass spectrometer coupled to an Agilent 1260 HPLC system was used for HPLC coupled to tandem mass spectrometry (LC-MS/MS) quantitative analysis of the samples, with chromatography attained using an Agilent Zorbax SB-C8 column (2.1×30 mm; particle size, 3.5 μm) and a reverse phase gradient elution. The aqueous mobile phase consisted of Milli-Q deionized water with 0.1% formic acid (A), while the organic mobile phase was 0.1% formic acid in acetonitrile (B). The gradient set-up was as follows: 5-90% B over 2 mins, 1 min at 90% B, then an immediate drop to 5% B and an additional 1 min at 5% B. Quantification of molecules was carried out via multiple-reaction monitoring of parent/daughter transitions in electrospray positive-ionization mode, and sample analyses accepted if quality control and standard samples had concentrations within 20% of the nominal concentration. Preparation of compounds for generation of standard curves and quality control spiking solutions were performed as previously described (Wang et al, 2020). Data were processed using Analyst software (Version 1.6.2; Applied Biosystems Sciex).

Row | Structure (SMILES) | Inhibition of Mtb growth in J774 cells phenotype [1] | rv2390c′::GFP Cl− response phenotype [2] | other results
1 | CCSc1ncc(CNCCNc2nc3ccccc3o2)cn1 [JSF-4547, N^1-(benzo[d]oxazol-2-yl)-N^2-((2-(ethylthio)pyrimidin-5-yl)methyl)ethane-1,2-diamine] | N | N | 
2 | CCSc1ncc(CN2CCN(c3nc4c(C)cccc4o3)CC2)cn1 [JSF-4551, 2-(4-((2-(ethylthio)pyrimidin-5-yl)methyl)piperazin-1-yl)-4-methylbenzo[d]oxazole] | Y | Y | 
3 | CCSc1ncc(CN2CCN(c3nc4cc(Cl)ccc4o3)CC2)cn1 [JSF-4477, 5-chloro-2-(4-((2-(ethylthio)pyrimidin-5-yl)methyl)piperazin-1-yl)benzo[d]oxazole] |  | Y | 
4 | CCSc1ncc(CN2CCN(c3nc4cccc(C)c4o3)CC2)cn1 [JSF-4562, 2-(4-((2-(ethylthio)pyrimidin-5-yl)methyl)piperazin-1-yl)-7-methylbenzo[d]oxazole] | Y | Y | 
5 | CCSc1ncc(CN2CCN(c3ncco3)CC2)cn1 [JSF-4747, 2-(4-((2-(ethylthio)pyrimidin-5-yl)methyl)piperazin-1-yl)oxazole] |  | Y | 
6 | CCSc1ncc(CN2CCN(c3nc4c(Cl)cccc4o3)CC2)cn1 [JSF-4604, 4-chloro-2-(4-((2-(ethylthio)pyrimidin-5-yl)methyl)piperazin-1-yl)benzo[d]oxazole] | Y | Y | 
7 | CSc1ncc(CN2CCN(c3nc4ccccc4o3)CC2)cn1 [JSF-4730, 2-(4-((2-(methylthio)pyrimidin-5-yl)methyl)piperazin-1-yl)benzo[d]oxazole] | Y | Y | 
8 | CCSc1ncc(CN2CCN(c3nc4ccccc4s3)CC2)cn1 [JSF-4298, 2-(4-((2-(ethylthio)pyrimidin-5-yl)methyl)piperazin-1-yl)benzo[d]thiazole] |  | Y | Mtb growth in J774 cells (in words) ([1]; 10 μM, 6 days post-infection): continuing to demonstrate the phenotypes seen with the parental C6 compound; rv2390c′::GFP reporter signal upon Mtb exposure to high [Cl−] (in words) ([2]; 10 μM, 250 mM NaCl): continuing to demonstrate the phenotypes seen with the parental C6 compound; Mtb growth in cholesterol media (in words) ([3]; 10 μM, OD600): continuing to demonstrate the phenotypes seen with the parental C6 compound; Growth inhibition in cholesterol media phenotype ([3]; compared to C6): Y
9 | CCSc1ncc(CN2CCN(c3nc4cc(F)c(F)cc4o3)CC2)cn1 [JSF-4525, 2-(4-((2-(ethylthio)pyrimidin-5-yl)methyl)piperazin-1-yl)-5,6-difluorobenzo[d]oxazole] | Y | Y | % Reduction of Intracellular Infection (J774.1 cells) at 10 μM cmpd [1]: 46.3 ± 2.9^b %; half-life [4]: 39.8 min; solubility kinetic [5]: 0.952 µM (≈ 0.373 µg/mL); Kp at 5 h [6]: 0.33; AUC(0-t) [6]: 29700 ng·h/mL
10 | CCSc1ncc(CN2CCN(c3nc4ccc(Cl)cc4o3)CC2)cn1 [JSF-4467, 6-chloro-2-(4-((2-(ethylthio)pyrimidin-5-yl)methyl)piperazin-1-yl)benzo[d]oxazole] | Y | Y | % Reduction of Intracellular Infection (J774.1 cells) at 10 μM cmpd [1]: 50.6 ± 2.0%; half-life [4]: 54.3 min; solubility kinetic [5]: 8.3 µM (≈ 3.24 µg/mL); Kp at 5 h [6]: 0.36; AUC(0-t) [6]: 41700 ng·h/mL
11 | CCSc1ncc(CN2CCN(c3nc4cc(OC)ccc4o3)CC2)cn1 [JSF-4528, 2-(4-((2-(ethylthio)pyrimidin-5-yl)methyl)piperazin-1-yl)-5-methoxybenzo[d]oxazole] |  | N | 
12 | CCSc1ncc(CN2CCN(c3nc4cccc(Cl)c4o3)CC2)cn1 [JSF-4603, 7-chloro-2-(4-((2-(ethylthio)pyrimidin-5-yl)methyl)piperazin-1-yl)benzo[d]oxazole] | Y | Y | 
13 | CCSc1ncc(CN2CCN(c3nc4cccc(C(F)(F)F)c4o3)CC2)cn1 [JSF-4601, 2-(4-((2-(ethylthio)pyrimidin-5-yl)methyl)piperazin-1-yl)-7-(trifluoromethyl)benzo[d]oxazole] |  | Y | 
14 | CCSc1ncc(C(=O)N2CCN(c3nc4ccccc4o3)CC2)cn1 [JSF-4683, (4-(benzo[d]oxazol-2-yl)piperazin-1-yl)(2-(ethylthio)pyrimidin-5-yl)methanone] |  | N | 
15 | CCSc1ncc(CN2CCN(c3nc4cccc(F)c4o3)CC2)cn1 [JSF-4516, 2-(4-((2-(ethylthio)pyrimidin-5-yl)methyl)piperazin-1-yl)-7-fluorobenzo[d]oxazole] | Y | N | 
16 | CCSc1ncc(CN2CCN(c3nc4cc(C)ccc4o3)CC2)cn1 [JSF-4471, 2-(4-((2-(ethylthio)pyrimidin-5-yl)methyl)piperazin-1-yl)-5-methylbenzo[d]oxazole] | Y | Y | 
17 | CCSc1ncc(CN2CCN(c3nc4ccc(C(F)(F)F)cc4o3)CC2)cn1 [JSF-4507, 2-(4-((2-(ethylthio)pyrimidin-5-yl)methyl)piperazin-1-yl)-6-(trifluoromethyl)benzo[d]oxazole] | Y | Y | 
18 | CCSc1ncc(CN2CCN(c3nc4ccc(F)cc4o3)CC2)cn1 [JSF-4509, 2-(4-((2-(ethylthio)pyrimidin-5-yl)methyl)piperazin-1-yl)-6-fluorobenzo[d]oxazole] |  | Y | 
19 | CCSc1ncc(CN2CCN(c3nc4c(F)cccc4o3)CC2)cn1 [JSF-4602, 2-(4-((2-(ethylthio)pyrimidin-5-yl)methyl)piperazin-1-yl)-4-fluorobenzo[d]oxazole] | Y | Y | 
